Measured values reported in publication PMC11537005, “Antimicrobial activity of novel symmetrical antimicrobial peptides centered on a hydrophilic motif against resistant clinical isolates: in vitro and in vivo analyses” (Microbiology Spectrum, 2024).
Values after ≈ are worked out from the molar mass of the structure shown. Residues, ends and D or L forms follow the SMILES beside them.

Columns and labels:
MRSA 544 [1] = assay: microbe, parasite or virus in culture; assay type: cell-based, Staphylococcus aureus
Excerpt: (§1) The test strains (Gram-negative: E. coli ATCC 25922, E. coli k88, E. coli k99, E. coli 987, P. aeruginosa ATCC PAO1, Salmonella pullorum ATCC 7731, S. pullorum ATCC 7913, and S. typhimurium ATCC 14028; Gram-positive: S. aureus ATCC 29213, S. aureus ATCC 25923, S. epidermidis ATCC 12228, MRSA ATCC 43300, MRSA 544, MRSA 103, L. rhamnosus ATCC 8014, and L. rhamnosus 1.9021) were maintained at the School of Medicine in the Shenzhen Campus of Sun Yat-sen University. Mouse RBCs were extracted from a specific pathogen-free (SPF) grade mouse.
(§2) The peptides' antimicrobial effectiveness was evaluated using a method derived from a previous publication ([59]) and modified for use in this study. Single colonies were seeded and cultured in brain–heart infusion (BHI) medium at 37°C until log-phase growth after adjustment to OD600 = 0.4, which was followed by a 1000-fold dilution with phosphate-buffered saline (PBS). Then, in sterile 96-well plates, twofold serial dilutions of the peptides were added, followed by 50-µL aliquots of the bacterial cell solution. The ultimate concentrations of the antibacterial agents were 0.125–64 μM. Moreover, bacteria and PBS were added to the TSB as positive and negative controls, respectively. The plates were placed in an incubator set at 37°C for 18 hours. The trial was conducted a minimum of three times in sets of three. Successful completion of the experiment was confirmed by observing the turbidity of the positive control and clarity of the negative control culture medium. The MIC was defined as the lowest peptide concentration required to inhibit bacterial growth.

MRSA 103 [2] = assay: microbe, parasite or virus in culture; assay type: cell-based, Staphylococcus aureus
Excerpt: as §1, §2

MRSA 544 [3] = assay: microbe, parasite or virus in culture; assay type: cell-based, Staphylococcus aureus; remark: listed apart in the source
Method: as §2
(§3) For MBC analysis, viable cells from all wells with no visible bacterial growth were determined on the BHI agar plates. After 24 hours of cultivation at 37°C, the MBC endpoint was defined as the minimum concentration at which 99.9% of the bacterial population was killed.

MRSA 103 [4] = assay: microbe, parasite or virus in culture; assay type: cell-based, Staphylococcus aureus; remark: listed apart in the source
Method: as §2, §3

BALB/c mice = assay: In vivo safety assessment; design: species or system mouse; settings: 10 mg/kg intravenously, five days after injection
Method: The in vivo safety assessment and antibacterial activity analysis of the peptides were performed using a murine skin infection model wherein 25 SPF-grade 6- to 8-week-old female mice (BALB/c) were randomly divided into five cages (n = 5 in each cage). The animals were housed individually in ventilated cages (IVC), at a temperature of 20°C–24°C, humidity of 50%–60%, and a 12-hour day–night cycle.
Two groups of five mice were randomly divided and intravenously injected with 100 µL PBS or a 10 mg/kg solution of AMP W5 diluted with PBS. Five days after injection, all animals were euthanized. The weight of each mouse was determined from day 0 to day 5. Blood samples were collected to analyze hepatorenal damage, and an automatic biochemical analyzer was used to measure indicators, including ALT, AST, ALP, BUN, CREA, and LDH. The livers and kidneys of the mice were stained with hematoxylin/eosin (HE) for histological analysis.

clinically isolated MRSA [5] = assay type: cell-based, Staphylococcus aureus; settings: 18 h
Method: as §2, §3

clinically isolated MRSA [6] = assay: microbe, parasite or virus in culture
Excerpt: as §1
as §2, with “Successful completion of the experiment was confirmed by observing the turbidity of the positive control and clarity of the negative control culture medium.” left out

standard MRSA strains = assay type: cell-based, Staphylococcus aureus; settings: 18 h
Excerpt: as §1
as §2, with “Successful completion of the experiment was confirmed by observing the turbidity of the positive control and clarity of the negative control culture medium. The MIC was defined as the lowest peptide concentration required to inhibit bacterial growth.” left out

MRSA 544 [7] = assay: Time-kill kinetics; assay type: cell-based, Staphylococcus aureus; settings: 2 × MIC, 4 × MIC and 8 × MIC, 0–7 hours
Method: MRSA 544 was cultured to the logarithmic phase (OD600 = 0.4) and diluted 1000-fold with PBS. […] At various periods (0, 5, 10, 15, 20, 25, 30, and 60 minutes), microbial suspensions were serially diluted (10-, 100-, and 1000-fold) with PBS, and 10 µL of the diluted suspension was plated on tryptic soy agar (TSA) medium. Single colonies of microorganisms were counted after 12-hour incubation at 37°C. The processing steps of vancomycin were the same as those of AMP W5, but with different concentrations (2 × MIC, 4 × MIC, and 8 × MIC) and periods (0, 1, 2, 3, 4, 5, 6, and 7 hours). Average values were calculated and plotted after six repetitions.

[8] = clinically isolated MRSA strains, 37°C, 18 hours
[9] = Staphylococcus aureus, MRSA, 18 h
[10] = Staphylococcus aureus, MRSA, 24 h

What does the source list for `N=C(N)NCCC[C@H](NC(=O)CNC(=O)[C@H](CO)NC(=O)CNC(=O)[C@H](CCCNC(=N)N)NC(=O)[C@@H](N)Cc1c[nH]c2ccccc12)C(=O)N[C@@H](Cc1c[nH]c2ccccc12)C(N)=O` [W1] (H-WRGSGRW-NH2)?
MIC (MRSA 544 [1]; 544, 18 h): > 64 µM; MIC (MRSA 103 [2]; 103, 18 h): > 64 µM; MBC (MRSA 544 [3]; 544, 24 h): > 64 µM; MBC (MRSA 103 [4]; 103, 24 h): > 64 µM

With `N=C(N)NCCC[C@H](NC(=O)CNC(=O)[C@H](CO)NC(=O)CNC(=O)[C@H](CCCNC(=N)N)NC(=O)[C@H](CCCNC(=N)N)NC(=O)[C@H](CCCNC(=N)N)NC(=O)[C@@H](N)Cc1c[nH]c2ccccc12)C(=O)N[C@@H](CCCNC(=N)N)C(=O)N[C@@H](CCCNC(=N)N)C(=O)N[C@@H](Cc1c[nH]c2ccccc12)C(N)=O` [W3] (H-WRRRGSGRRRW-NH2) as the compound, how does the MIC (MRSA 544 [1]; 544, 18 h) read?
The MIC was > 64 µM.

What about the MIC (MRSA 103 [2]; 103, 18 h) of the same compound?
Its MIC is > 64 µM.

And the MBC (MRSA 544 [3]; 544, 24 h)?
Its MBC is > 64 µM.

What about the MBC (MRSA 103 [4]; 103, 24 h) of the same compound?
The MBC was > 64 µM.

For `N=C(N)NCCC[C@H](NC(=O)CNC(=O)[C@H](CO)NC(=O)CNC(=O)[C@H](CCCNC(=N)N)NC(=O)[C@H](CCCNC(=N)N)NC(=O)[C@H](CCCNC(=N)N)NC(=O)[C@H](Cc1c[nH]c2ccccc12)NC(=O)[C@H](Cc1c[nH]c2ccccc12)NC(=O)[C@@H](N)Cc1c[nH]c2ccccc12)C(=O)N[C@@H](CCCNC(=N)N)C(=O)N[C@@H](CCCNC(=N)N)C(=O)N[C@@H](Cc1c[nH]c2ccccc12)C(=O)N[C@@H](Cc1c[nH]c2ccccc12)C(=O)N[C@@H](Cc1c[nH]c2ccccc12)C(N)=O` [W5] (H-WWWRRRGSGRRRWWW-NH2), which “HE staining of liver and kidney” value (BALB/c mice) is on record?
The value was “no hepatotoxicity or nephrotoxicity”.

What about the MIC (MRSA 544 [1]; 544, 18 h) of the same compound?
Its MIC is 8 µM (≈ 18.2 µg/mL).

What about the MIC (MRSA 103 [2]; 103, 18 h) of the same compound?
Its MIC is 8 µM (≈ 18.2 µg/mL).

What about the MBC (MRSA 544 [3]; 544, 24 h) of the same compound?
The MBC was 8 µM (≈ 18.2 µg/mL).

And the MBC (MRSA 103 [4]; 103, 24 h)?
The MBC was 8 µM (≈ 18.2 µg/mL).

What about the MBC (clinically isolated MRSA [5]) of the same compound?
The MBC was 8 µM (≈ 18.2 µg/mL).

What about the MIC (clinically isolated MRSA [6]; [8]) of the same compound?
Its MIC is 8 µM (≈ 18.2 µg/mL).

What about the MIC (standard MRSA strains) of the same compound?
The MIC was 2 µM (≈ 4.55 µg/mL).

With `N=C(N)NCCC[C@H](NC(=O)CNC(=O)[C@H](CO)NC(=O)CNC(=O)[C@H](CCCNC(=N)N)NC(=O)[C@H](CCCNC(=N)N)NC(=O)[C@H](CCCNC(=N)N)NC(=O)[C@H](Cc1c[nH]c2ccccc12)NC(=O)[C@@H](N)Cc1c[nH]c2ccccc12)C(=O)N[C@@H](CCCNC(=N)N)C(=O)N[C@@H](CCCNC(=N)N)C(=O)N[C@@H](Cc1c[nH]c2ccccc12)C(=O)N[C@@H](Cc1c[nH]c2ccccc12)C(N)=O` [W4] (H-WWRRRGSGRRRWW-NH2) as the compound, how does the MIC (MRSA 544 [1]; 544, 18 h) read?
Its MIC is 16 µM (≈ 30.4 µg/mL).

And the MIC (MRSA 103 [2]; 103, 18 h)?
Its MIC is 16 µM (≈ 30.4 µg/mL).

And the MBC (MRSA 544 [3]; 544, 24 h)?
The MBC was 32 µM (≈ 60.8 µg/mL).

What about the MBC (MRSA 103 [4]; 103, 24 h) of the same compound?
Its MBC is 32 µM (≈ 60.8 µg/mL).

For `N=C(N)NCCC[C@H](NC(=O)CNC(=O)[C@H](CO)NC(=O)CNC(=O)[C@H](CCCNC(=N)N)NC(=O)[C@H](CCCNC(=N)N)NC(=O)[C@@H](N)Cc1c[nH]c2ccccc12)C(=O)N[C@@H](CCCNC(=N)N)C(=O)N[C@@H](Cc1c[nH]c2ccccc12)C(N)=O` [W2] (H-WRRGSGRRW-NH2), which MIC (MRSA 544 [1]; 544, 18 h) is on record?
Its MIC is > 64 µM.

And the MIC (MRSA 103 [2]; 103, 18 h)?
Its MIC is > 64 µM.

What about the MBC (MRSA 544 [3]; 544, 24 h) of the same compound?
The MBC was > 64 µM.

What about the MBC (MRSA 103 [4]; 103, 24 h) of the same compound?
Its MBC is > 64 µM.

Which results are given for `CC[C@H](C)[C@H](NC(=O)CN)C(=O)NCC(=O)N[C@@H](C)C(=O)N[C@H](C(=O)N[C@@H](CC(C)C)C(=O)N[C@@H](CCCCN)C(=O)N[C@H](C(=O)N[C@@H](CC(C)C)C(=O)N[C@H](C(=O)N[C@H](C(=O)NCC(=O)N[C@@H](CC(C)C)C(=O)N1CCC[C@H]1C(=O)N[C@@H](C)C(=O)N[C@@H](CC(C)C)C(=O)N[C@H](C(=O)N[C@@H](CO)C(=O)N[C@@H](Cc1c[nH]c2ccccc12)C(=O)N[C@H](C(=O)N[C@@H](CCCCN)C(=O)N[C@@H](CCCNC(=N)N)C(=O)N[C@@H](CCCCN)C(=O)N[C@@H](CCCNC(=N)N)C(=O)N[C@@H](CCC(N)=O)C(=O)N[C@@H](CCC(N)=O)C(N)=O)[C@@H](C)CC)[C@@H](C)CC)[C@@H](C)O)[C@@H](C)O)C(C)C)C(C)C` [Melittin, reference compound]?
MIC (MRSA 544 [1]; MRSA 544, twofold serial dilutions 0.125–64 μM, 96-well plates, 37°C, 18 hours, minimum of three times in sets of three): 4 µM (≈ 11.4 µg/mL); MIC (MRSA 103 [2]; MRSA 103, twofold serial dilutions 0.125–64 μM, 96-well plates, 37°C, 18 hours, minimum of three times in sets of three): 4 µM (≈ 11.4 µg/mL); MBC (MRSA 544 [3]; MRSA 544, BHI agar plates, 24 hours at 37°C, minimum concentration at which 99.9% killed): 4 µM (≈ 11.4 µg/mL); MBC as multiple of MIC (MRSA 103 [4]; MRSA 103): 2 × MIC; MBC (MRSA 103 [4]; MRSA 103, BHI agar plates, 24 hours at 37°C, minimum concentration at which 99.9% killed): 8 µM (≈ 22.8 µg/mL); MIC (clinically isolated MRSA [6]; [8]): 4 µM (≈ 11.4 µg/mL)

For `CN[C@H](CC(C)C)C(=O)N[C@H]1C(=O)N[C@@H](CC(N)=O)C(=O)N[C@H]2C(=O)N[C@H]3C(=O)N[C@H](C(=O)N[C@H](C(=O)O)c4cc(O)cc(O)c4-c4cc3ccc4O)[C@H](O)c3ccc(c(Cl)c3)Oc3cc2cc(c3O[C@@H]2O[C@H](CO)[C@@H](O)[C@H](O)[C@H]2O[C@H]2C[C@](C)(N)[C@H](O)[C@H](C)O2)Oc2ccc(cc2Cl)[C@H]1O` [Vancomycin, reference compound], which MIC (MRSA 544 [1]; [9]) is on record?
Its MIC is 0.5 µM (≈ 0.725 µg/mL).

And the MIC (MRSA 103 [2]; [9])?
Its MIC is 0.5 µM (≈ 0.725 µg/mL).

And the “Bactericidal effect in time-kill assay” value (MRSA 544 [7])?
Its value is “no signs of complete eradication even after 7 hours”.

And the “MBC as multiple of MIC” value (MRSA 544 [3]; MRSA 544)?
The value was 8 × MIC.

What about the MBC (MRSA 544 [3]; [10]) of the same compound?
The MBC was 4 µM (≈ 5.8 µg/mL).

And the “MBC as multiple of MIC” value (MRSA 103 [4]; MRSA 103)?
The value was 8 × MIC.

And the MBC (MRSA 103 [4]; [10])?
Its MBC is 4 µM (≈ 5.8 µg/mL).

And the MIC (clinically isolated MRSA [6]; [9])?
Its MIC is 0.5 µM (≈ 0.725 µg/mL).
